Source: patent US20230002387A1, “2-AMINO-S6-SUBSTITUTED THIOPURINE COMPOUNDS AS INHIBITORS OF THE ENPP1 PROTEIN” (ATEN PORUS LIFESCIENCES PVT. LTD., priority 2019, published 2023)

Legend:
[1] = test system: LLC1 syngeneic tumor; experiment: In vivo efficacy in LLC1 syngeneic tumor model (murine Lewis lung carcinoma); design: species or system C57BL/6 mice; settings: for % TGI (vs Control): Day 15; for Tumor volume (mm^3), Mean, Day 15: SE in next cell; for Reduction of tumor volume compared among the dosing groups of the compound: IV dosing in combination with anti-PD-1 antibody (FIG. 4, 7, 10); for Tumor volume (mm^3), Mean ± SE, Day 1: baseline at start of treatment; for Effect on tumor volume in the murine Lewis lung carcinoma model: PO and IV dosing, alone or in combination with anti-PD-1 antibody (FIG. 4, 7, 10)
Procedure: The anti-tumor efficacy of Compound 155, 173 and 174 was evaluated in combination with an anti-PD-1 antibody (check point inhibitor) in LLC1, a syngeneic tumor model. Compounds were administered orally at a dose of 100 mg/kg, once daily. IV doses of the compound were administered at 10 mg/kg dose, twice weekly or Q3D (Compound 155 at 2 mg/Kg IV). Anti-PD-1 antibody was administered at a dose of 200 μg/animal via IP route on days 1, 5 and 9 (Table 5).
C57BL/6 mice (female, 7-8 weeks of age) were implanted subcutaneously with 0.2×10^6 LLC1 cells (ATCC® CRL-1642^Tm) to evaluate tumor growth in a murine Lewis lung carcinoma model. Tumor-bearing animals were randomized into different treatment groups of 8 animals based on tumor size criteria of about 50-60 mm^3 and dosed according to the schedule in Table 5.
Dosing protocol: The frequency for oral administration was once daily and IV administration was twice weekly for two weeks; anti-PD-1 antibody was administered via IP route on Days 1, 5 and 9.
Tumor measurement: Tumor growth was measured thrice weekly using a digital Vernier caliper. Tumor volume was calculated as: Tumor Volume (TV)=[Length (L)×Width (W)2]/2 (where length is the largest diameter and width is the smallest diameter of the tumor)
Efficacy Evaluation: Tumor growth inhibition (TGI) was calculated as: […]
Data Analysis: Statistical analysis of the data was performed by One-way ANOVA followed by Dunnett's test using GraphPad Prism (version 5.03).

[2] = target: T1, ENPP1 (Homo sapiens, UniProt P22413); experiment: Capillary electrophoresis-based NPP assay with ATP as a substrate (ENPP1 inhibition, Ki); type: biochemical; settings: Ki from IC50 by Cheng-Prusoff, 400 μM ATP
T1 sequence (P22413 1-925): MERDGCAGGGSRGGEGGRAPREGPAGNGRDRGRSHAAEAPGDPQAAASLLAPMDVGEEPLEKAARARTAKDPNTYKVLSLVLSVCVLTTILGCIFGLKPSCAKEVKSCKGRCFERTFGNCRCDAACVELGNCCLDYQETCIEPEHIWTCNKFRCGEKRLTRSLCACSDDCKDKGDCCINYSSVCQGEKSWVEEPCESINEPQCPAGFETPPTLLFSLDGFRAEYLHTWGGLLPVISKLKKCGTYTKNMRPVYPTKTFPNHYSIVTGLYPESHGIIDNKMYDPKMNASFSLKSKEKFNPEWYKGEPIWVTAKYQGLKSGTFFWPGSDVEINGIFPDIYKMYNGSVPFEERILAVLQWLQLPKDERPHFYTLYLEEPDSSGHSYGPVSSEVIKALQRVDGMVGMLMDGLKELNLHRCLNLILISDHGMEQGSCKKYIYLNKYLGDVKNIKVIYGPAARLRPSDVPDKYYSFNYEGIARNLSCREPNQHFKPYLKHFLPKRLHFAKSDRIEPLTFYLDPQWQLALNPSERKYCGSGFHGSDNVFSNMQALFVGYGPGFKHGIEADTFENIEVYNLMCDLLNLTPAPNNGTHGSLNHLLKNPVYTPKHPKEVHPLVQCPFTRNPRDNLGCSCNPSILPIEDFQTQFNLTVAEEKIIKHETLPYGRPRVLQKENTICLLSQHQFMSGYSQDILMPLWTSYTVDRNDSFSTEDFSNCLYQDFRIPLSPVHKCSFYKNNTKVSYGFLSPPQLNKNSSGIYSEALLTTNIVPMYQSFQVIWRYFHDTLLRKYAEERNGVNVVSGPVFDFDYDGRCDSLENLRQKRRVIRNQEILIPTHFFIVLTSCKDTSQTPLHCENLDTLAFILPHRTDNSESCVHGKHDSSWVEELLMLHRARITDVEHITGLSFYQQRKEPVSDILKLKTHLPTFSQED
Procedure: Here, a Capillary Electrophoresis based method was used to determine the IC50 values for ENPP1 Inhibitors for ENNP1 protein.
The inhibitors synthesized were assessed for ENPP1 inhibitory potency against the natural substrate ATP. The enzyme inhibition assays were performed in 10 mM 2-(N-cyclohexylamino)-ethanesulfonic acid (CHES) buffer (pH 10.0) including 1 mM MgCl2, 2 mM CaCl2), and 400 μM of ATP, with different inhibitor concentrations. The reaction mixture was incubated with 20 ng human NPP1 at 37° C. for 30 min in a final volume of 100 μL, and the reactions were stopped by heating at 90° C. for 3 min. Finally, the reaction mixtures were directly measured by capillary electrophoresis (CE). The CE instrumentation and operating conditions were as follows: P/ACE MDQ capillary electrophoresis system (Beckman Instruments, Fullerton, Calif., USA) with a DAD detection system, polyacrylamide-coated capillaries of 40 cm effective length×[…] (id) obtained from CS Chromatographie GmbH (Langerwehe, Germany), 50 mM phosphate buffer (pH 6.5) as running buffer, electrokinetic injection (−6 kV, 60 s), separation voltage of −15 kV. The amounts of AMP produced were measured at 260 nm. Data collection and peak area analysis were performed by 32 Karat software obtained from Beckman Coulter (Fullerton, Calif., USA).
The IC50 values of test compounds were calculated by plotting data in the program Prism 5.0, and the Ki values were calculated from the IC50 values with the Cheng-Prusoff equation (Tables 2-4).

[3] = IV 10 mg/kg twice weekly + anti-PD-1 200 μg/animal IP Q4D x 3
[4] = IV 10 mg/kg twice weekly, alone
[5] = PO 100 mg/kg QD x 14 + anti-PD-1 200 μg/animal IP Q4D x 3
[6] = IV 2 mg/kg twice weekly + anti-PD-1 200 μg/animal IP Q4D x 3

Compound: CCC(Sc1nc(N)nc2nc[nH]c12)C(=O)Nc1ccc(O)c(OC)c1 (centres unmarked) [Compound 174]
- % TGI (vs Control) [1, 3]: 57%
- Tumor volume (mm^3), Mean, Day 15 [1, 3]: 778 mm^3
- % TGI (vs Control) [1, 4]: 48%
- Tumor volume (mm^3), Mean, Day 15 [1, 4]: 930 mm^3
- Reduction of tumor volume compared among the dosing groups of the compound [1]: greatest reduction
- % TGI (vs Control) [1, 5]: 60%
- Tumor volume (mm^3), Mean, Day 15 [1, 5]: 724 mm^3
- % TGI (vs Control) ([1]; PO 100 mg/kg QD x 14, alone): 52%
- Tumor volume (mm^3), Mean ± SE, Day 1 ([1]; IV 10 mg/kg + anti-PD-1 group): 50 ± 1.2 mm^3
- Tumor volume (mm^3), Mean ± SE, Day 1 ([1]; IV 10 mg/kg alone group): 50 ± 1.1 mm^3
- Tumor volume (mm^3), Mean ± SE, Day 1 ([1]; PO 100 mg/kg + anti-PD-1 group): 50 ± 1.2 mm^3
- Tumor volume (mm^3), Mean ± SE, Day 1 ([1]; PO 100 mg/kg alone group): 50 ± 1.3 mm^3

Compound: Nc1nc(SCC(=O)Nc2ccc(O)c(C(=O)O)c2)c2[nH]cnc2n1 [Compound 155]
- % TGI (vs Control) [1, 6]: 57%
- Tumor volume (mm^3), Mean, Day 15 [1, 6]: 787 mm^3
- % TGI (vs Control) ([1]; IV 2 mg/kg twice weekly, alone): 47%
- Tumor volume (mm^3), Mean, Day 15 ([1]; IV 2 mg/kg twice weekly, alone): 956 mm^3
- Reduction of tumor volume compared among the dosing groups of the compound [1]: greatest reduction
- % TGI (vs Control) [1, 5]: 44%
- Tumor volume (mm^3), Mean, Day 15 [1, 5]: 1008 mm^3
- % TGI (vs Control) ([1]; PO 100 mg/kg QD x 14, alone): 33%
- Tumor volume (mm^3), Mean, Day 15 ([1]; PO 100 mg/kg QD x 14, alone): 1191 mm^3
- Effect on tumor volume in the murine Lewis lung carcinoma model [1]: reduced tumor volume
- Tumor volume (mm^3), Mean ± SE, Day 1 ([1]; IV 2 mg/kg + anti-PD-1 group): 50 ± 1.4 mm^3
- Tumor volume (mm^3), Mean ± SE, Day 1 ([1]; IV 2 mg/kg alone group): 51 ± 2.0 mm^3
- Tumor volume (mm^3), Mean ± SE, Day 1 ([1]; PO 100 mg/kg + anti-PD-1 group): 50 ± 1.4 mm^3
- Tumor volume (mm^3), Mean ± SE, Day 1 ([1]; PO 100 mg/kg alone group): 50 ± 1.4 mm^3
- Ki ([2]; bin of Table 2): ≤ 100 nM

Compound: COc1cc(NC(=O)C(C)Sc2nc(N)nc3nc[nH]c23)ccc1O (centres unmarked) [Compound 173]
- % TGI (vs Control) [1, 3]: 53%
- Tumor volume (mm^3), Mean, Day 15 [1, 3]: 856 mm^3
- % TGI (vs Control) [1, 4]: 48%
- Tumor volume (mm^3), Mean, Day 15 [1, 4]: 926 mm^3
- Reduction of tumor volume compared among the dosing groups of the compound [1]: greatest reduction
- % TGI (vs Control) [1, 5]: 47%
- Tumor volume (mm^3), Mean, Day 15 [1, 5]: 945 mm^3
- % TGI (vs Control) ([1]; PO 100 mg/kg QD x 14, alone): 37%
- Tumor volume (mm^3), Mean, Day 15 ([1]; PO 100 mg/kg QD x 14, alone): 1126 mm^3
- Effect on tumor volume in the murine Lewis lung carcinoma model [1]: reduced tumor volume
- Tumor volume (mm^3), Mean ± SE, Day 1 ([1]; IV 10 mg/kg + anti-PD-1 group): 50 ± 1.4 mm^3
- Tumor volume (mm^3), Mean ± SE, Day 1 ([1]; IV 10 mg/kg alone group): 50 ± 1.3 mm^3
- Tumor volume (mm^3), Mean ± SE, Day 1 ([1]; PO 100 mg/kg + anti-PD-1 group): 50 ± 1.4 mm^3
- Tumor volume (mm^3), Mean ± SE, Day 1 ([1]; PO 100 mg/kg alone group): 50 ± 1.4 mm^3
- Ki ([2]; bin of Table 2): ≤ 100 nM

Compound: COc1ccc(NC(=O)CSc2nc(N)nc3ncn(C)c23)cc1OC [Compound 98]
- Ki ([2]; bin of Table 4): ≥ 1000 nM

Compound: CC(C)Oc1nc(NC(=O)C(C)(C)Sc2nc(N)nc3nc[nH]c23)ncc1Br [Compound 543]
- Ki ([2]; bin of Table 2): ≤ 100 nM

Compound: Nc1nc(SCC(=O)Nc2ccc3nccnc3c2)c2[nH]cnc2n1 [Compound 185]
- Ki ([2]; bin of Table 2): ≤ 100 nM

Compound: Nc1nc(SCC(=O)Nc2ccc(O)c(Br)c2)c2[nH]cnc2n1 [Compound 194]
- Ki ([2]; bin of Table 2): ≤ 100 nM

Compound: CCOc1nc(NC(=O)[C@@H](CC)Sc2nc(N)nc3nc[nH]c23)ncc1Br [Compound 712]
- Ki ([2]; bin of Table 2): ≤ 100 nM

Compound: COc1ccnc(NC(=O)[C@H](C)Sc2nc(N)nc3nc[nH]c23)n1 [Compound 487]
- Ki ([2]; bin of Table 2): ≤ 100 nM

Compound: CCOc1ccc(NC(=O)CSc2nc(N)nc3nc[nH]c23)cc1OCC [Compound 84]
- Ki ([2]; bin of Table 4): ≥ 1000 nM

Compound: CCOc1nc(NC(=O)[C@@H](Sc2nc(N)nc3nc[nH]c23)C(C)C)ncc1Br [Compound 681]
- Ki ([2]; bin of Table 2): ≤ 100 nM

Compound: CC[C@@H](Sc1nc(N)nc2nc[nH]c12)C(=O)Nc1ncc(Br)c(OC)n1 [Compound 508]
- Ki ([2]; bin of Table 2): ≤ 100 nM

Compound: Nc1nc(SCC(=O)Nc2ccc3ncsc3c2)c2[nH]cnc2n1 [Compound 181]
- Ki ([2]; bin of Table 2): ≤ 100 nM

Compound: COc1ccnc(NC(=O)[C@H](Cc2ccccc2)Sc2nc(N)nc3nc[nH]c23)n1 [Compound 517]
- Ki ([2]; bin of Table 2): ≤ 100 nM
